Data taken from patent US20230085307A1, “PYRIDAZINONE COMPOUND AND HERBICIDE” (NISSAN CHEMICAL CORPORATION, priority 2019, published 2023).

Experiments:
late watergrass = assay: Test Example 1: herbicidal activity, application before weed generation under submerged conditions (Table 16, symbol A); format: in vivo, late watergrass (Echinochloa oryzicola); details: amount of applied herbicide 320 g/ha
In short: (§1)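 Submerged Wagner pots (alluvial soil, 4 cm water) sown with weed seeds and planted with 2.5-leaf rice seedlings; emulsifiable concentrate diluted in water applied to water surface on sowing day. Held in greenhouse at 25-30 °C; injury scored 0-5 by herbicidal rate after three weeks.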

Japanese bulrush = assay: Test Example 1: herbicidal activity, application before weed generation under submerged conditions (Table 16, symbol B); format: in vivo, Japanese bulrush (Schoenoplectus juncoides); details: amount of applied herbicide 320 g/ha
In short: as §1

oval-leafed pondweed = assay: Test Example 1: herbicidal activity, application before weed generation under submerged conditions (Table 16, symbol C); format: in vivo, oval-leafed pondweed (Monochoria vaginalis); details: amount of applied herbicide 320 g/ha
In short: as §1

barnyard grass [1] = assay: Test Example 3: herbicidal effect by foliage application, Wagner pot (Table 18, symbol H); format: in vivo, barnyard grass (Echinochloa crus-galli)
In short: (§2)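 Plants were sown in alluvial soil held under 0.1–0.5 cm standing water and grown 14 days in a greenhouse at 25–30 °C. An emulsifiable formulation, water-diluted to the set dose, was then sprayed onto the foliage, and effects were scored three weeks later using previously defined criteria.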

Chinese sprangletop = assay: Test Example 3: herbicidal effect by foliage application, Wagner pot (Table 18, symbol D); format: in vivo, chinese sprangletop (Leptochloa chinensis)
In short: as §2

rice flat sedge = assay: Test Example 3: herbicidal effect by foliage application, Wagner pot (Table 18, symbol E); format: in vivo, rice flat sedge (Cyperus iria)
In short: as §2

southern crabgrass [2] = assay: Test Example 4: herbicidal effect by soil treatment (Table 19, symbol F); format: in vivo, southern crabgrass (Digitaria ciliaris); details: amount of applied herbicide 320 g/ha
In short: (§3)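 In this soil treatment, the formulated compound reached the seeds only through the soil: seeds were buried about 1.5 cm deep in sterilized diluvial soil, then the diluted emulsion was sprayed over the surface. After three weeks at 25° C. to 30° C. in a greenhouse, effects were graded on criteria from an earlier test.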

green foxtail [3] = assay: Test Example 4: herbicidal effect by soil treatment (Table 19, symbol G); format: in vivo, green foxtail (Setaria viridis); details: amount of applied herbicide 320 g/ha
In short: as §3

barnyard grass [4] = assay: Test Example 4: herbicidal effect by soil treatment (Table 19, symbol H); format: in vivo, barnyard grass (Echinochloa crus-galli); details: amount of applied herbicide 320 g/ha
In short: as §3

wild oat [5] = assay: Test Example 4: herbicidal effect by soil treatment (Table 19, symbol I); format: in vivo, wild oat (Avena fatua); details: amount of applied herbicide 320 g/ha
In short: as §3

blackgrass [6] = assay: Test Example 4: herbicidal effect by soil treatment (Table 19, symbol J); format: in vivo, blackgrass (Alopecurus myosuroides); details: amount of applied herbicide 320 g/ha
In short: as §3

Italian ryegrass [7] = assay: Test Example 4: herbicidal effect by soil treatment (Table 19, symbol K); format: in vivo, Italian ryegrass (Lolium multiflorum); details: amount of applied herbicide 320 g/ha
In short: as §3

windgrass [8] = assay: Test Example 4: herbicidal effect by soil treatment (Table 19, symbol L); format: in vivo, windgrass (Apera spica-venti); details: amount of applied herbicide 320 g/ha
In short: as §3

velvetleaf [9] = assay: Test Example 4: herbicidal effect by soil treatment (Table 19, symbol M); format: in vivo, velvetleaf (Abutilon theophrasti); details: amount of applied herbicide 320 g/ha
In short: as §3

redroot pigweed [10] = assay: Test Example 4: herbicidal effect by soil treatment (Table 19, symbol N); format: in vivo, redroot pigweed (Amaranthus retroflexus); details: amount of applied herbicide 320 g/ha
In short: as §3

lambsquarters [11] = assay: Test Example 4: herbicidal effect by soil treatment (Table 19, symbol O); format: in vivo, lambsquarters (Chenopodium album); details: amount of applied herbicide 320 g/ha
In short: as §3

chickweed [12] = assay: Test Example 4: herbicidal effect by soil treatment (Table 19, symbol P); format: in vivo, common chickweed (Stellaria media); details: amount of applied herbicide 320 g/ha
In short: as §3

persian speedwell [13] = assay: Test Example 4: herbicidal effect by soil treatment (Table 19, symbol R); format: in vivo, Persian speedwell (Veronica persica); details: amount of applied herbicide 320 g/ha
In short: as §3

southern crabgrass [14] = assay: Test Example 5: herbicidal effect by foliage application, plastic box (Table 20, symbol F); format: in vivo, southern crabgrass (Digitaria ciliaris); details: foliage application, 320 g/ha, three weeks after application
In short: (§4)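 Plants were sown into sterilized diluvial soil under about 1.5 cm cover and kept in a greenhouse at 25° C. to 30° C. Fourteen days on, foliage received an even spray of the diluted emulsion. Herbicidal or crop effect was judged three weeks afterwards.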

green foxtail [15] = assay: Test Example 5: herbicidal effect by foliage application, plastic box (Table 20, symbol G); format: in vivo, green foxtail (Setaria viridis); details: foliage application, 320 g/ha, three weeks after application
In short: as §4

barnyard grass [16] = assay: Test Example 5: herbicidal effect by foliage application, plastic box (Table 20, symbol H); format: in vivo, barnyard grass (Echinochloa crus-galli); details: foliage application, 320 g/ha, three weeks after application
In short: as §4

wild oat [17] = assay: Test Example 5: herbicidal effect by foliage application, plastic box (Table 20, symbol I); format: in vivo, wild oat (Avena fatua); details: foliage application, 320 g/ha, three weeks after application
In short: as §4

blackgrass [18] = assay: Test Example 5: herbicidal effect by foliage application, plastic box (Table 20, symbol J); format: in vivo, blackgrass (Alopecurus myosuroides); details: foliage application, 320 g/ha, three weeks after application
In short: as §4

Italian ryegrass [19] = assay: Test Example 5: herbicidal effect by foliage application, plastic box (Table 20, symbol K); format: in vivo, Italian ryegrass (Lolium multiflorum); details: foliage application, 320 g/ha, three weeks after application
In short: as §4

windgrass [20] = assay: Test Example 5: herbicidal effect by foliage application, plastic box (Table 20, symbol L); format: in vivo, windgrass (Apera spica-venti); details: foliage application, 320 g/ha, three weeks after application
In short: as §4

velvetleaf [21] = assay: Test Example 5: herbicidal effect by foliage application, plastic box (Table 20, symbol M); format: in vivo, velvetleaf (Abutilon theophrasti); details: foliage application, 320 g/ha, three weeks after application
In short: as §4

redroot pigweed [22] = assay: Test Example 5: herbicidal effect by foliage application, plastic box (Table 20, symbol N); format: in vivo, redroot pigweed (Amaranthus retroflexus); details: foliage application, 320 g/ha, three weeks after application
In short: as §4

lambsquarters [23] = assay: Test Example 5: herbicidal effect by foliage application, plastic box (Table 20, symbol O); format: in vivo, lambsquarters (Chenopodium album); details: foliage application, 320 g/ha, three weeks after application
In short: as §4

chickweed [24] = assay: Test Example 5: herbicidal effect by foliage application, plastic box (Table 20, symbol P); format: in vivo, common chickweed (Stellaria media); details: foliage application, 320 g/ha, three weeks after application
In short: as §4

persian speedwell [25] = assay: Test Example 5: herbicidal effect by foliage application, plastic box (Table 20, symbol R); format: in vivo, Persian speedwell (Veronica persica); details: foliage application, 320 g/ha, three weeks after application
In short: as §4

[26] = amount of applied herbicide 320 g/ha

COc1ccccc1-c1sc2cc(F)ccc2c1-c1c(OC(=O)COc2ccccc2)c(C)nn(C)c1=O [3-021]
Herbicidal effect, A: late watergrass (late watergrass): 3 (Herbicidal rate of 40% or more and less than 70%) | Herbicidal effect, B: Japanese bulrush (Japanese bulrush): 3 (Herbicidal rate of 40% or more and less than 70%) | Herbicidal effect, C: oval-leafed pondweed (oval-leafed pondweed): 4 (Herbicidal rate of 70% or more and less than 90%) | herbicidal effect on H: barnyard grass (barnyard grass [1]; [26]): 5 (Herbicidal rate of 90% or more (almost completely withered)) | herbicidal effect on D: Chinese sprangletop (Chinese sprangletop; [26]): 3 (Herbicidal rate of 40% or more and less than 70%) | herbicidal effect on E: rice flat sedge (rice flat sedge; [26]): 5 (Herbicidal rate of 90% or more (almost completely withered)) | herbicidal effect, F: southern crabgrass (southern crabgrass [2]): 3 (Herbicidal rate of 40% or more and less than 70%) | herbicidal effect, G: green foxtail (green foxtail [3]): 4 (Herbicidal rate of 70% or more and less than 90%) | herbicidal effect, H: barnyard grass (barnyard grass [4]): 4 (Herbicidal rate of 70% or more and less than 90%) | herbicidal effect, I: wild oat (wild oat [5]): 1 (Herbicidal rate of 5% or more and less than 20%) | herbicidal effect, J: blackgrass (blackgrass [6]): 4 (Herbicidal rate of 70% or more and less than 90%) | herbicidal effect, K: Italian ryegrass (Italian ryegrass [7]): 4 (Herbicidal rate of 70% or more and less than 90%) | herbicidal effect, L: windgrass (windgrass [8]): 3 (Herbicidal rate of 40% or more and less than 70%) | herbicidal effect, M: velvetleaf (velvetleaf [9]): 0 (Herbicidal rate of 5% or less (almost no effect)) | herbicidal effect, N: redroot pigweed (redroot pigweed [10]): 4 (Herbicidal rate of 70% or more and less than 90%) | herbicidal effect, O: lambsquarters (lambsquarters [11]): 4 (Herbicidal rate of 70% or more and less than 90%) | herbicidal effect, P: chickweed (chickweed [12]): 3 (Herbicidal rate of 40% or more and less than 70%) | herbicidal effect, R: persian speedwell (persian speedwell [13]): 4 (Herbicidal rate of 70% or more and less than 90%) | F: southern crabgrass, herbicidal effect grade (southern crabgrass [14]): 4 (Herbicidal rate of 70% or more and less than 90%) | G: green foxtail, herbicidal effect grade (green foxtail [15]): 5 (Herbicidal rate of 90% or more (almost completely withered)) | H: barnyard grass, herbicidal effect grade (barnyard grass [16]): 5 (Herbicidal rate of 90% or more (almost completely withered)) | I: wild oat, herbicidal effect grade (wild oat [17]): 4 (Herbicidal rate of 70% or more and less than 90%) | J: blackgrass, herbicidal effect grade (blackgrass [18]): 4 (Herbicidal rate of 70% or more and less than 90%) | K: Italian ryegrass, herbicidal effect grade (Italian ryegrass [19]): 4 (Herbicidal rate of 70% or more and less than 90%) | L: windgrass, herbicidal effect grade (windgrass [20]): 5 (Herbicidal rate of 90% or more (almost completely withered)) | M: velvetleaf, herbicidal effect grade (velvetleaf [21]): 5 (Herbicidal rate of 90% or more (almost completely withered)) | N: redroot pigweed, herbicidal effect grade (redroot pigweed [22]): 5 (Herbicidal rate of 90% or more (almost completely withered)) | O: lambsquarters, herbicidal effect grade (lambsquarters [23]): 5 (Herbicidal rate of 90% or more (almost completely withered)) | P: chickweed, herbicidal effect grade (chickweed [24]): 5 (Herbicidal rate of 90% or more (almost completely withered)) | R: persian speedwell, herbicidal effect grade (persian speedwell [25]): 4 (Herbicidal rate of 70% or more and less than 90%)

Cc1nn(C)c(=O)c(-c2c(-c3ccc4c(c3)OCCO4)sc3cc(Cl)ccc23)c1O [3-047]
Herbicidal effect, A: late watergrass (late watergrass): 3 (Herbicidal rate of 40% or more and less than 70%) | Herbicidal effect, B: Japanese bulrush (Japanese bulrush): 2 (Herbicidal rate of 20% or more and less than 40%) | Herbicidal effect, C: oval-leafed pondweed (oval-leafed pondweed): 0 (Herbicidal rate of 5% or less (almost no effect)) | herbicidal effect on barnyard grass (H) (barnyard grass [1]; 320 g/ha): 3 (Herbicidal rate of 40% or more and less than 70%) | herbicidal effect on Chinese sprangletop (D) (Chinese sprangletop; 320 g/ha): 3 (Herbicidal rate of 40% or more and less than 70%) | herbicidal effect on rice flat sedge (E) (rice flat sedge; 320 g/ha): 2 (Herbicidal rate of 20% or more and less than 40%) | F: southern crabgrass, herbicidal effect grade (southern crabgrass [2]): 0 (Herbicidal rate of 5% or less (almost no effect)) | G: green foxtail, herbicidal effect grade (green foxtail [3]): 0 (Herbicidal rate of 5% or less (almost no effect)) | H: barnyard grass, herbicidal effect grade (barnyard grass [4]): 0 (Herbicidal rate of 5% or less (almost no effect)) | I: wild oat, herbicidal effect grade (wild oat [5]): 0 (Herbicidal rate of 5% or less (almost no effect)) | J: blackgrass, herbicidal effect grade (blackgrass [6]): 0 (Herbicidal rate of 5% or less (almost no effect)) | K: Italian ryegrass, herbicidal effect grade (Italian ryegrass [7]): 0 (Herbicidal rate of 5% or less (almost no effect)) | L: windgrass, herbicidal effect grade (windgrass [8]): 0 (Herbicidal rate of 5% or less (almost no effect)) | M: velvetleaf, herbicidal effect grade (velvetleaf [9]): 0 (Herbicidal rate of 5% or less (almost no effect)) | N: redroot pigweed, herbicidal effect grade (redroot pigweed [10]): 1 (Herbicidal rate of 5% or more and less than 20%) | O: lambsquarters, herbicidal effect grade (lambsquarters [11]): 3 (Herbicidal rate of 40% or more and less than 70%) | P: chickweed, herbicidal effect grade (chickweed [12]): 0 (Herbicidal rate of 5% or less (almost no effect)) | R: persian speedwell, herbicidal effect grade (persian speedwell [13]): 5 (Herbicidal rate of 90% or more (almost completely withered)) | F: southern crabgrass, herbicidal effect grade (southern crabgrass [14]): 0 (Herbicidal rate of 5% or less (almost no effect)) | G: green foxtail, herbicidal effect grade (green foxtail [15]): 0 (Herbicidal rate of 5% or less (almost no effect)) | H: barnyard grass, herbicidal effect grade (barnyard grass [16]): 0 (Herbicidal rate of 5% or less (almost no effect)) | I: wild oat, herbicidal effect grade (wild oat [17]): 0 (Herbicidal rate of 5% or less (almost no effect)) | J: blackgrass, herbicidal effect grade (blackgrass [18]): 0 (Herbicidal rate of 5% or less (almost no effect)) | K: Italian ryegrass, herbicidal effect grade (Italian ryegrass [19]): 0 (Herbicidal rate of 5% or less (almost no effect)) | L: windgrass, herbicidal effect grade (windgrass [20]): 0 (Herbicidal rate of 5% or less (almost no effect)) | M: velvetleaf, herbicidal effect grade (velvetleaf [21]): 1 (Herbicidal rate of 5% or more and less than 20%) | N: redroot pigweed, herbicidal effect grade (redroot pigweed [22]): 0 (Herbicidal rate of 5% or less (almost no effect)) | O: lambsquarters, herbicidal effect grade (lambsquarters [23]): 2 (Herbicidal rate of 20% or more and less than 40%) | P: chickweed, herbicidal effect grade (chickweed [24]): 3 (Herbicidal rate of 40% or more and less than 70%) | R: persian speedwell, herbicidal effect grade (persian speedwell [25]): 5 (Herbicidal rate of 90% or more (almost completely withered))
